1 compound from patent publication US10646454B2, “Microcell delivery systems including charged or magnetic particles for regulating rate of administration of actives” (E INK CALIFORNIA, LLC, priority 2017, dated 2020) can be followed below.

Molecules are shown by their SMILES. Like-named read-outs stand apart in the source and are kept apart here.

For this data set the following is noted: for release profile: versus control, FIG. 12. How it is done:
Two layers of dialysis tubing (Thermo-Fisher, Waltham, Mass.) were cut to fit across the opening at the joint of the Franz cell. For control measurements, 500 μL of a 1.3 mg/mL solution of nicotine in D.I. water was pipetted into the top of the cell. Samples were removed from the receptor cell at various time points as indicated in the graph in FIG. 12.
Subsequent experiments added small amounts of polymer-coated carbon nanoparticles between the two layers of dialysis tubing. The overall coverage was approximated by taking a photograph of the combined double layer nanoparticle sandwich from the top and assessing the darkness of the layer. […] For approximately 35% coverage [circles] and for full (100%) coverage [triangles], a sample of 500 μL of a 1.3 mg/mL solution of nicotine in D.I. water was pipetted into the top of the cell and samples were removed at various time points.

Consider `CN1CCCC1c1cccnc1` (stereo not drawn) [nicotine], for which the release profile result runs as follows: (approximately 35% coverage with polymer-coated carbon nanoparticles between two layers of dialysis tubing) “very similar to the control”; (full (100%) coverage with polymer-coated carbon nanoparticles between two layers of dialysis tubing) “sizeable difference”. For the same compound, under “full (100%) coverage with polymer-coated carbon nanoparticles between two layers of dialysis tubing, versus control without particles, 500 μL of 1.3 mg/mL nicotine in D.I. water”, the “reduction in the total nicotine delivered over 24 hours” value is reported as 50%.
